In ChEMBL document CHEMBL4052669, “Synthesis, molecular modelling and CYP24A1 inhibitory activity of novel of (E)-N-(2-(1H-imidazol-1-yl)-2-(phenylethyl)-3/4-styrylbenzamides” (Bioorg Med Chem, 2017) one finds IC50 data, which are given here for ten molecules.

pIC50: −log10 of the molar value.

The assay addresses T1, 1,25-dihydroxyvitamin D(3) 24-hydroxylase, mitochondrial (Homo sapiens, UniProt Q07973).
T1 sequence (Q07973 whole entry): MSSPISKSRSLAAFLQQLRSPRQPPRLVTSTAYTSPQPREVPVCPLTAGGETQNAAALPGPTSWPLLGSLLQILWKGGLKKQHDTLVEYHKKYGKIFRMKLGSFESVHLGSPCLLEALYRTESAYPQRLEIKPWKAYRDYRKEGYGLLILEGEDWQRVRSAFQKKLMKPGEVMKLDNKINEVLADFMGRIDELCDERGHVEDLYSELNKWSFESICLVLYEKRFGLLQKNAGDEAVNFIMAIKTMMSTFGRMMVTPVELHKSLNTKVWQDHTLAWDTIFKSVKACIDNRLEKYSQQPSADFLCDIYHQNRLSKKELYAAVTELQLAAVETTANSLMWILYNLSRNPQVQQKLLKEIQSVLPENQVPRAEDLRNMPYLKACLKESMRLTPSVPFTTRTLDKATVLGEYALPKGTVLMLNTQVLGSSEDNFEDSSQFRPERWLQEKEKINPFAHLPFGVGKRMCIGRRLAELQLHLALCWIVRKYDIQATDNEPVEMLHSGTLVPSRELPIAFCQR
In words: Inhibition of MBP-tagged human CYP24A1 expressed Escherichia coli BL21-Gold(DE3) incubated for 25 mins in presence of Adx, AdR 1,25(OH)2D3 and NADPH by HPLC method.
For the molecule `COc1ccc(/C=C/c2ccc(C(=O)NCC(c3ccc(Cl)cc3)n3ccnc3)cc2)cc1OC` (stereo not given), the pIC50 was 6.92.
`O=C(NCC(c1ccccc1)n1ccnc1)c1cccc(/C=C/c2ccccc2)c1` (stereo not given): the negative-log IC50 (pIC50) was 6.72.
The value for `COc1ccc(C(CNC(=O)c2ccc(/C=C/c3ccccc3)cc2)n2ccnc2)cc1` (stereo not given) was 6.96.
Regarding `O=C(NCC(c1ccccc1C(F)(F)F)n1ccnc1)c1ccc(/C=C/c2ccccc2)cc1` (stereo not given), the pIC50 was 6.46.
On to `O=C(NCC(c1ccc(C(F)(F)F)cc1)n1ccnc1)c1cccc(/C=C/c2ccccc2)c1` (stereo not given), for which the pIC50 is 6.82.
The value for `O=C(NCC(c1ccc(Cl)cc1)n1ccnc1)c1cccc(/C=C/c2ccccc2)c1` (stereo not given) was 6.80; that for `O=C(NCC(c1ccccc1)n1ccnc1)c1cccc(/C=C/c2ccccc2C(F)(F)F)c1` (stereo not given) was 6.47; that for `O=C(NCC(c1ccc(C(F)(F)F)cc1)n1ccnc1)c1ccc(/C=C/c2ccccc2)cc1` (stereo not given) was 6.74.
Turning to `Cc1ccc(C(CNC(=O)c2ccc(/C=C/c3ccccc3)cc2)n2ccnc2)cc1C` (stereo not given), the pIC50 is 6.51.
In the case of `O=C(NCC(c1ccc(Cl)cc1)n1ccnc1)c1ccc(/C=C/c2ccccc2)cc1` (stereo not given), the negative-log IC50 (pIC50) is 6.68.

As a reminder, the pIC50 is the IC50 on a negative log10 scale, so that one unit is a factor of ten.
